Reference: patent US20060057669A1, “Inactive transcription factor tif-ia and uses thereof” (priority 2002, published 2006)

Columns and labels:
Pol I = experiment: Co-immunoprecipitation of Pol I with TIF-IA mutants from HEK293T cells; type: binding, human
Description: (B) A mutant that mimics phosphorylation of TIF-IA at S199 fails to interact with Pol I and TIF-IB. FLAG-tagged wild-type TIF-IA or the indicated point mutants were overexpressed in HEK293T cells and immunoprecipitated from cell lysates with anti-FLAG antibodies (M2 agarose). Co-precipitated Pol I and TIF-IB/SL1 were visualized on Western blots with anti-RPA116 and anti-TAFI110 antibodies.
Immunoprecipitations were carried out from human cells overexpressing FLAG-tagged TIF-IA. Cells were lysed in IP buffer, cleared by centrifugation at 10,000×g for 30 min, and the supernatants were incubated for 4 hr at 4° C. with anti-FLAG (M2) agarose (Sigma). To analyze the interaction of TIF-IA with TIF-IB/SL1, the immunoprecipitates were washed with IP buffer and TIF-IB/SL1 was visualized on immunoblots with α-TAFI110 antibodies. To monitor the interaction of TIF-IA with Pol I, the immunoprecipitates were washed with IP buffer containing 600 mM NaCl and Pol I was analyzed on Western blots using antibodies against the second largest subunit of Pol I (RPA116) or PAF67 (Seither et al., J. Biol. Chem. 382 (2001), 1163-1170).
Given the importance of mTOR-mediated alterations in the phosphorylation pattern on TIF-IA activity, one could predict that either phosphorylation of S199, dephosphorylation of S44 or both regulate the interaction of TIF-IA with the Pol I transcription apparatus. It was therefore examined whether the S→A or S→D point mutant(s) were capable of interacting with Pol I and/or TIF-IB/SL1. For this, TIF-IA was precipitated from cells overexpressing either FLAG-tagged wild-type TIF-IA or the respective S199 and S44 mutant(s), and co-precipitated Pol I and TIF-IB/SL1 were visualized on Western blots.

TIF-IA = experiment: Western blot of TIF-IA and Pol I in stimulated NIH3T3 cells; type: cell-based; details: 40 μM PD98059, 30 min
Description: Serum-starved NIH3T3 cells were stimulated for 30 min by 10% serum, 10 ng bFGF, 50 ng/ml EGF or 0.1 μM TPA in the absence or presence of 40 μM PD98059. A Western blot is shown with 50 μg lysate proteins and antibodies against unphosphorylated and phosphorylated ERK1/2 as well as Pol I (RPA116) and TIF-IA.
Similarly, the amount of both Pol I and TIF-IA remained the same in quiescent and serum-stimulated cells. On Western blots, TIF-IA from growing and quiescent cells appears as a closely spaced double-band (indicated by a dot and asterisk in FIG. 1B) that corresponds to differently phosphorylated forms of TIF-IA. After mitogenic stimulation, the faster migrating form was converted into the more slowly migrating TIF-IA moiety. The shift in electrophoretic mobility correlated with cellular pre-rRNA synthetic activity, i.e., was predominant 20-30 min after mitogenic stimulation and returned to normal levels after 2 hr. Activation of pre-rRNA synthesis and decrease in the electrophoretic mobility of TIF-IA was also observed after stimulation of quiescent cells with growth factors, e.g. bFGF, or EGF, or with the phorbol ester TPA (FIGS. 1C and D), a potent stimulus of the Ras-ERK pathway, through activation of protein kinase C.

Molecule	interaction with Pol I (co-precipitated RPA116) (Pol I)	effect on electrophoretic mobility shift of TIF-IA after stimulation (TIF-IA)	effect on the amount of Pol I and TIF-IA (TIF-IA)
TIF-IA: wild-type human transcription initiation factor TIF-IA, accession No. AJ272050	interacted with both Pol I and TIF-IB/SL1		
COc1cccc(-c2cc(=O)c3ccccc3o2)c1N [PD98059]		prevented the electrophoretic mobility shift of TIF-IA	does not affect the amount of Pol I and TIF-IA
